Source: ChEMBL document CHEMBL1201862, “PubChem BioAssay data set” (2004)
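Each compound was tested at five concentrations against cells in 96-well plates for 48 hours. Abbreviation: GI50, concentration required for 50% inhibition of growth.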 Calls of active or inactive are those of the source. Rule as the data show it: active = GI50 up to about 1.1 µM and inactive = higher.

What was measured:
Assay in all cases: growth of human tumour cells (NCI), 48 h
UACC-257 = system: UACC-257
MCF7 = system: MCF7
A549 = system: A549
Hs-578T = system: Hs-578T
Malme-3M = system: Malme-3M
K562 = system: K562
OVCAR-4 = system: OVCAR-4
OVCAR-3 = system: OVCAR-3
MOLT-4 = system: MOLT-4
CAKI-1 = system: CAKI-1
HT-29 = system: HT-29
DU-145 = system: DU-145
RXF 393 = system: RXF 393
SK-OV-3 = system: SK-OV-3
ACHN = system: ACHN
HL-60 = system: HL-60
PC-3 = system: PC-3
A498 = system: A498
UACC-62 = system: UACC-62
SK-MEL-2 = system: SK-MEL-2
RPMI-8226 = system: RPMI-8226
BT-549 = system: BT-549
LOX IMVI = system: LOX IMVI
CCRF-CEM = system: CCRF-CEM
SN12C = system: SN12C
COLO 205 = system: COLO 205
TK-10 = system: TK-10
HCT-116 = system: HCT-116
HOP-92 = system: HOP-92
M14 = system: M14
SNB-75 = system: SNB-75
SK-MEL-28 = system: SK-MEL-28
IGROV-1 = system: IGROV-1
MDA-MB-435 = system: MDA-MB-435
SW-620 = system: SW-620
EKVX = system: EKVX
NCI-H460 = system: NCI-H460
UO-31 = system: UO-31
MDA-N = system: MDA-N
786-0 = system: 786-0
SK-MEL-5 = system: SK-MEL-5
SNB-19 = system: SNB-19
HOP-62 = system: HOP-62
OVCAR-8 = system: OVCAR-8
SF-295 = system: SF-295
OVCAR-5 = system: OVCAR-5
SF-539 = system: SF-539
NCI-H23 = system: NCI-H23
HCT-15 = system: HCT-15
NCI/ADR-RES = system: NCI/ADR-RES
NCI-H226 = system: NCI-H226
MDA-MB-231 = system: MDA-MB-231
SR = system: SR
U-251 = system: U-251
KM12 = system: KM12
T47D = system: T47D
SF-268 = system: SF-268
HCC 2998 = system: HCC 2998
NCI-H522 = system: NCI-H522

## NC(CSC1c2ccccc2-c2ccccc21)C(=O)O (stereo not drawn)
UACC-257
  GI50: > 100 µM (inactive)
MCF7
  GI50: > 100 µM (inactive)
A549
  GI50: > 100 µM (inactive)
Hs-578T
  GI50: 23.9 µM (inactive)
Malme-3M
  GI50: > 100 µM (inactive)
K562
  GI50: > 100 µM (inactive)
OVCAR-4
  GI50: > 100 µM (inactive)
OVCAR-3
  GI50: > 100 µM (inactive)
MOLT-4
  GI50: > 100 µM (inactive)
CAKI-1
  GI50: > 100 µM (inactive)
HT-29
  GI50: > 100 µM (inactive)
DU-145
  GI50: > 100 µM (inactive)
RXF 393
  GI50: > 100 µM (inactive)
SK-OV-3
  GI50: > 100 µM (inactive)
ACHN
  GI50: > 100 µM (inactive)
HL-60
  GI50: > 100 µM (inactive)
PC-3
  GI50: > 100 µM (inactive)
A498
  GI50: > 100 µM (inactive)
UACC-62
  GI50: > 100 µM (inactive)
SK-MEL-2
  GI50: > 100 µM (inactive)
RPMI-8226
  GI50: > 100 µM (inactive)
BT-549
  GI50: > 100 µM (inactive)
LOX IMVI
  GI50: > 100 µM (inactive)
CCRF-CEM
  GI50: > 100 µM (inactive)
SN12C
  GI50: > 100 µM (inactive)
COLO 205
  GI50: > 100 µM (inactive)
TK-10
  GI50: > 100 µM (inactive)
HCT-116
  GI50: > 100 µM (inactive)
HOP-92
  GI50: > 100 µM (inactive)
M14
  GI50: > 100 µM (inactive)
SNB-75
  GI50: > 100 µM (inactive)
SK-MEL-28
  GI50: > 100 µM (inactive)
IGROV-1
  GI50: > 100 µM (inactive)
MDA-MB-435
  GI50: > 100 µM (inactive)
SW-620
  GI50: > 100 µM (inactive)
EKVX
  GI50: > 100 µM (inactive)
NCI-H460
  GI50: > 100 µM (inactive)
UO-31
  GI50: > 100 µM (inactive)
MDA-N
  GI50: > 100 µM (inactive)
786-0
  GI50: > 100 µM (inactive)
SK-MEL-5
  GI50: > 100 µM (inactive)
SNB-19
  GI50: > 100 µM (inactive)
HOP-62
  GI50: > 100 µM (inactive)
OVCAR-8
  GI50: > 100 µM (inactive)
SF-295
  GI50: > 100 µM (inactive)
OVCAR-5
  GI50: > 100 µM (inactive)
SF-539
  GI50: > 100 µM (inactive)
NCI-H23
  GI50: > 100 µM (inactive)
HCT-15
  GI50: > 100 µM
NCI/ADR-RES
  GI50: > 100 µM (inactive)
NCI-H226
  GI50: > 100 µM (inactive)
MDA-MB-231
  GI50: > 100 µM (inactive)
SR
  GI50: 69.2 µM (inactive)
U-251
  GI50: > 100 µM (inactive)
KM12
  GI50: > 100 µM (inactive)
T47D
  GI50: > 100 µM (inactive)

## CCOC(=O)Oc1cc2c(c(OC)c1OC)-c1ccc(SC)c(=O)cc1C(NC(=O)C(F)(F)F)CC2 (stereo not drawn)
UACC-257
  GI50: 0.00223 µM (active)
MCF7
  GI50: < 0.001 µM (active)
A549
  GI50: 0.00555 µM (active)
Hs-578T
  GI50: < 0.001 µM (active)
Malme-3M
  GI50: < 0.001 µM (active)
K562
  GI50: < 0.001 µM (active)
OVCAR-4
  GI50: 2.01 µM (inactive)
OVCAR-3
  GI50: < 0.001 µM (active)
MOLT-4
  GI50: 0.00117 µM (active)
CAKI-1
  GI50: 0.0147 µM (active)
HT-29
  GI50: < 0.001 µM (active)
DU-145
  GI50: 0.00258 µM (active)
RXF 393
  GI50: < 0.001 µM (active)
SK-OV-3
  GI50: < 0.001 µM (active)
ACHN
  GI50: 0.00224 µM (active)
HL-60
  GI50: < 0.001 µM (active)
PC-3
  GI50: 0.026 µM (active)
A498
  GI50: 0.00133 µM (active)
UACC-62
  GI50: 0.00108 µM (active)
RPMI-8226
  GI50: < 0.001 µM (active)
BT-549
  GI50: 0.1 µM (active)
LOX IMVI
  GI50: 0.00177 µM (active)
SF-268
  GI50: 0.00196 µM (active)
CCRF-CEM
  GI50: < 0.001 µM (active)
SN12C
  GI50: 0.00199 µM (active)
COLO 205
  GI50: 0.0577 µM (active)
TK-10
  GI50: > 10 µM (inactive)
HCT-116
  GI50: < 0.001 µM (active)
HOP-92
  GI50: 0.00604 µM (active)
M14
  GI50: < 0.001 µM (active)
SNB-75
  GI50: < 0.001 µM (active)
SK-MEL-28
  GI50: < 0.001 µM (active)
IGROV-1
  GI50: 0.0022 µM (active)
MDA-MB-435
  GI50: < 0.001 µM (active)
SW-620
  GI50: < 0.001 µM (active)
EKVX
  GI50: 0.201 µM (active)
NCI-H460
  GI50: 0.00199 µM (active)
UO-31
  GI50: 0.244 µM (active)
MDA-N
  GI50: < 0.001 µM (active)
786-0
  GI50: 0.0017 µM (active)
SK-MEL-5
  GI50: < 0.001 µM (active)
SNB-19
  GI50: 0.00316 µM (active)
HOP-62
  GI50: 0.00191 µM (active)
OVCAR-8
  GI50: 0.0015 µM (active)
HCC 2998
  GI50: 0.0435 µM (active)
SF-295
  GI50: < 0.001 µM (active)
NCI-H522
  GI50: < 0.001 µM (active)
OVCAR-5
  GI50: 0.1 µM (active)
NCI-H23
  GI50: 0.0209 µM (active)
HCT-15
  GI50: 0.00221 µM
NCI/ADR-RES
  GI50: 0.0102 µM (active)
NCI-H226
  GI50: 0.00106 µM (active)
MDA-MB-231
  GI50: 0.00172 µM (active)
SR
  GI50: 0.00128 µM (active)
U-251
  GI50: 0.00145 µM (active)
KM12
  GI50: 0.00258 µM (active)
T47D
  GI50: 8.97 µM (inactive)
